In patent US20080213364A1, “Formulations of Pyridoxal-5'-Phosphate and Methods of Preparation” (Medicure International, Inc., priority 2004, published 2008):

Assays:
[1] = Single-dose pharmacokinetics study, plasma pyridoxal 5′-phosphate; conditions: both, human, in vivo
Experimental: (§1) Pharmacokinetics Study—The protocol was designed to first study a single dose of pyridoxal 5′-phosphate at three different dose levels: […] of body weight. Following evaluation of safety and tolerance, the highest tolerated dose was administered once daily for seven consecutive days. The product was manufactured as enteric-coated tablets each containing 250 mg of pyridoxal 5′-phosphate. The dose was calculated based on the body weight and rounded to the nearest 250 mg.
During the single-dose phase, blood samples were collected prior to dosing and 1, 2, 3, 4, 5, 6, 7, 8, 12, 16 and 24 hours following drug administration. During the multi-dose phase, blood samples were drawn each morning prior to dosing and 2 hours post-dose. Following the last dose on day 7, blood samples were drawn after 1, 2, 3, 4, 5, 6, 7, 8, 12, 16 and 24 hours.
Plasma samples were separated and divided into two approximately equal aliquots and stored at −70±10° C. pending shipment (over dry ice) to the analytical laboratory.
(§2) Pharmacokinetic Analysis—The following pharmacokinetic parameters were calculated: area under the curve from time zero to the last measurable concentration (AUC-T), area under the curve from time zero to infinity (AUC-inf), maximal plasma concentration (Cmax), time of maximal plasma concentration (Tmax), elimination constant (Kel), half-life (T½), mean residence time (MRT), clearance (Cl) and volume of distribution (Vd).
Whenever possible, the area under the plasma concentration-time curve was calculated from time zero to the last measurable concentration (AUC T) using the linear trapezoidal method. AUC-T is expressed as ng·h/ml. AUC-T was also normalized for body weight and expressed as ng·h/ml/kg.
The area under the curve from time zero to infinity (AUC-inf) was calculated as the sum of AUC-T+Clast/Kel where Clast represents the last measurable concentration and Kel the elimination rate constant calculated by linear least squares regression using the data points that best represent the terminal linear phase. AUC-inf is expressed as ng·h/ml. AUC-inf was also normalized for body weight and expressed as ng·h/mg/kg.
Cmax is expressed in ng/ml. Cmax was also normalized for body weight and expressed as ng/ml/kg. […]
The oral clearance was evaluated by dividing the dose (mg/kg) by AUC-inf (ng·h/mL). Clearance is expressed as L/h/kg. The actual clearance was also calculated without normalization for body weight and expressed as L/h.
The volume of distribution is actually the Vdarea calculated by dividing the clearance (L/h/kg) by Kel (h-1). Vd is expressed as L/kg and is not corrected for absolute bioavailability. The actual volume of distribution was also calculated without normalization for body weight and expressed in liters. […]

[2] = format: in vivo; conditions: 30 mg/kg daily as enteric coated tablets, Day 1 vs Day 7 parameters
Experimental: as §1
During the single-dose phase, blood samples were collected prior to dosing and 1, 2, 3, 4, 5, 6, 7, 8, 12, 16 and 24 hours following drug administration. […]
as §2
Subjects randomized to the 15 mg/kg group actually received a dose of 14.58±1.11 mg/kg. […] During the multi-dose phase of the study, the number of tablets was calculated prior to the first drug administration and remained constant throughout the duration of the study, regardless of any change in body weight. […]

Structure (SMILES): Cc1ncc(COP(=O)(O)O)c(C=O)c1O [pyridoxal 5′-phosphate]
- mean maximal plasma concentration (mean curve, FIG. 3) ([1]; 15 mg/kg): 1870 ± 2652 ng/mL
- time at which mean maximal plasma concentration was reached ([1]; 15 mg/kg): 6 h
- mean maximal plasma concentration (mean curve, FIG. 3) ([1]; 60 mg/kg): 3922 ± 5457 ng/mL
- time at which mean maximal plasma concentration was reached ([1]; 60 mg/kg): 4 h
- accumulation upon multiple dosing [2]: does not accumulate upon multiple dosing
